Assay in all cases: In vitro assay of antibacterial activity (agar dilution MIC)
Common to all, as to type: cell-based
(In agar dilution, organisms are placed on agar that contains the substance at set levels.)

Test [1] deals with Staphylococcus aureus A-5177. As to conditions: code BB = Staphylococcus aureus A-5177; BHI agar, 35-37 °C, 20 to 24 hours; unit assumed. The method, then: (§1) Representative compounds of the present invention were assayed in vitro for antibacterial activity as follows: Twelve petri dishes containing successive aqueous dilutions of the test compound mixed with 10 mL of sterilized Brain Heart Infusion (BHI) agar (Difco 0418-01-5) were prepared. Each plate was inoculated with 1:100 (or 1:10 for slow-growing strains, such as Micrococcus and Streptococcus) dilutions of up to 32 different microorganisms, using a Steers replicator block. The inoculated plates were incubated at 35-37 °C for 20 to 24 hours. In addition, a control plate, using BHI agar containing no test compound, was prepared and incubated at the beginning and end of each test.
(§2) An additional plate containing a compound having known susceptibility patterns for the organisms being tested and belonging to the same antibiotic class as the test compound was also prepared and incubated as a further control, as well as to provide test-to-test comparability. Erythromycin A was used for this purpose.
(§3) After incubation, each plate was visually inspected. The minimum inhibitory concentration (MIC) was defined as the lowest concentration of drug yielding no growth, a slight haze, or sparsely isolated colonies on the inoculum spot as compared to the growth control.

The test system of another test is Candida albicans CCH 442. The following applies: code TT = Candida albicans CCH 442; BHI agar, 35-37 °C, 20 to 24 hours; unit assumed. The method, then:
as §1, §2, §3

Test [2] deals with Streptococcus Pneumonia ATCC 6303. The following applies: code XX = Streptococcus Pneumonia ATCC 6303; BHI agar, 35-37 °C, 20 to 24 hours; unit assumed. The method, then: as §1, §2, §3
The test system of test [3] is Streptococcus bovis A-5169. The following applies: code JJ = Streptococcus bovis A-5169; BHI agar, 35-37 °C, 20 to 24 hours; unit assumed. The method, then: as §1, §2, §3
In test [4] the test system is Streptococcus pyogenes 930. As to conditions: code MM = Streptococcus pyogenes 930; BHI agar, 35-37 °C, 20 to 24 hours; unit assumed. The method, then: as §1, §2, §3
The test system of test [5] is Streptococcus pyogenes PIU 2548. The following applies: code NN = Streptococcus pyogenes PIU 2548; BHI agar, 35-37 °C, 20 to 24 hours; unit assumed. The procedure:
as §1, §2, §3

Test [6] relates to Micrococcusluteus ATCC 4698. As to conditions: code PP = Micrococcusluteus ATCC 4698; BHI agar, 35-37 °C, 20 to 24 hours; unit assumed. The method, then: as §1, §2, §3
Test [7] relates to Streptococcus agalactiae CMX 508. The following applies: code KK = Streptococcus agalactiae CMX 508; BHI agar, 35-37 °C, 20 to 24 hours; unit assumed. The method, then: as §1, §2, §3
For test [8], the system named is Nocardia Asteroides ATCC 99700. The following applies: code VV = Nocardia Asteroides ATCC 99700; BHI agar, 35-37 °C, 20 to 24 hours; unit assumed. The method, then:
as §1, §2, §3

Test [9] concerns Mycobacterium smegmatis ATCC 114. The following applies: code UU = Mycobacterium smegmatis ATCC 114; BHI agar, 35-37 °C, 20 to 24 hours; unit assumed. The procedure: as §1, §2, §3
In a further test the test system is Escherichiacoli SS. The following applies: code RR = Escherichiacoli SS; BHI agar, 35-37 °C, 20 to 24 hours; unit assumed. The method, then:
as §1, §2, §3

Test [10] relates to Staphylococcus aureus ATCC 6538P. The following applies: code AA = Staphylococcus aureus ATCC 6538P; BHI agar, 35-37 °C, 20 to 24 hours; unit assumed. The method, then: as §1, §2, §3
In test [11] the test system is Streptococcus pyogenes EES61. As to conditions: code LL = Streptococcus pyogenes EES61; BHI agar, 35-37 °C, 20 to 24 hours; unit assumed. The procedure: as §1, §2, §3
Test [12] has as its system Staphylococcus aureus A-5278. The following applies: code CC = Staphylococcus aureus A-5278; BHI agar, 35-37 °C, 20 to 24 hours; unit assumed. The method, then:
as §1, §2, §3

Test [13] concerns Haemophilislnfluenzae DILL AMP R. As to conditions: code WW = Haemophilislnfluenzae DILL AMP R; BHI agar, 35-37 °C, 20 to 24 hours; unit assumed. The procedure: as §1, §2, §3
The subject of a further test is Escherichiacoli JUHL. The following applies: code QQ = Escherichiacoli JUHL; BHI agar, 35-37 °C, 20 to 24 hours; unit assumed. The method, then:
as §1, §2, §3

Test [14] has as its system Streptococcus Pneumonia 5649. The following applies: code ZA = Streptococcus Pneumonia 5649; BHI agar, 35-37 °C, 20 to 24 hours; unit assumed. The method, then:
as §1, §2, §3

For test [15], the system named is Streptococcus Pneumonia GYR 1171. As to conditions: code YY = Streptococcus Pneumonia GYR 1171; BHI agar, 35-37 °C, 20 to 24 hours; unit assumed. The procedure:
as §1, §2, §3

Test [16] deals with Staphylococcus aureus NCTC 10649M. As to conditions: code EE = Staphylococcus aureus NCTC 10649M; BHI agar, 35-37 °C, 20 to 24 hours; unit assumed. The method, then:
as §1, §2, §3

In test [17] the test system is Staphylococcus epidermidis 3519. The following applies: code HH = Staphylococcus epidermidis 3519; BHI agar, 35-37 °C, 20 to 24 hours; unit assumed. The method, then:
as §1, §2, §3

Test [18] relates to Staphylococcus aureus 1775. As to conditions: code GG = Staphylococcus aureus 1775; BHI agar, 35-37 °C, 20 to 24 hours; unit assumed. The procedure:
as §1, §2, §3

The test system of test [19] is Streptococcus Pneumonia 5979. The following applies: code ZZ = Streptococcus Pneumonia 5979; BHI agar, 35-37 °C, 20 to 24 hours; unit assumed. The procedure: as §1
An additional plate containing a compound having known susceptibility patterns for the organisms being tested and belonging to the same antibiotic class as the test compound was also prepared and incubated as a further control, as well as to provide test-to-test comparability.
as §3

Consider 2 molecules from EP1206476B1, “9A-AZALIDES WITH ANTIBACTERIAL ACTIVITY” (ABBOTT LABORATORIES, priority 1999, dated 2001).

Take `CC[C@H]1OC(=O)[C@H](C)[C@@H](O[C@H]2C[C@@](C)(OC)[C@@H](O)[C@H](C)O2)[C@H](C)[C@@H](O[C@@H]2O[C@H](C)C[C@H](N(C)C)[C@H]2O)[C@](C)(O)C[C@@H](C)C(=O)[C@H](C)[C@@H](O)[C@]1(C)O` [Ery. A standard, Erythromycin A, reference compound]: the Antibacterial Activity (MIC's) in [1] is 3.1 µg/mL; in the test on Candida albicans CCH 442, over 100 µg/mL; in [2] it was 0.06 µg/mL; in test [3] it was 0.02 µg/mL; in [4] it was over 100 µg/mL; in [5] it was 6.2 µg/mL. Moreover, the Antibacterial Activity (MIC's) in test [6] stood at 0.2 µg/mL; in [7], 0.05 µg/mL; in test [8], 0.1 µg/mL; in [9], 3.1 µg/mL; with Escherichiacoli SS it was 0.78 µg/mL; in test [10], 0.2 µg/mL. Moreover, the Antibacterial Activity (MIC's) in [11] was 0.05 µg/mL; in [12] it was over 100 µg/mL; in test [13], 4 µg/mL; with Escherichiacoli JUHL it was over 100 µg/mL; in test [14] it was 16 µg/mL; in test [15], 0.06 µg/mL. Besides, the Antibacterial Activity (MIC's) in test [16] was 0.39 µg/mL; in test [17], 0.39 µg/mL; in test [18] it was over 100 µg/mL.

Turning to `C=CCO[C@]1(C)C[C@@H](C)CN[C@H](C)[C@@H](O)[C@](C)(O)[C@@H](CC)OC(=O)[C@H](C)[C@@H](O[C@H]2C[C@@](C)(OC)[C@@H](O)[C@H](C)O2)[C@H](C)[C@H]1O[C@@H]1O[C@H](C)C[C@H](N(C)C)[C@H]1O` [Example 2], the Antibacterial Activity (MIC's) in test [1] was 12.5 µg/mL; with Candida albicans CCH 442, over 100 µg/mL; in [2], 0.06 µg/mL; in test [3] it was 0.02 µg/mL; in [4], over 100 µg/mL; in test [5] it was 6.2 µg/mL. The Antibacterial Activity (MIC's) in test [6] worked out at 0.39 µg/mL; in test [7] it was 0.05 µg/mL; in test [8] it was 0.1 µg/mL; in [9], 6.2 µg/mL; in the test with Escherichiacoli SS, 0.78 µg/mL; in test [10], 0.2 µg/mL. For the same molecule, the Antibacterial Activity (MIC's) was 0.05 µg/mL in test [11]; over 100 µg/mL in [12]; 8 µg/mL in [13]; 50 µg/mL with Escherichiacoli JUHL; 16 µg/mL in [14]; 0.06 µg/mL in test [15]. The Antibacterial Activity (MIC's) in test [16] was 0.39 µg/mL; in [17], 0.2 µg/mL; in test [18], over 100 µg/mL; in [19], over 128 µg/mL.
